{"source": "ChEMBL document CHEMBL5244260", "about": "“Aldose reductase and protein tyrosine phosphatase 1B inhibitors as a promising therapeutic approach for diabetes mellitus” (Eur J Med Chem, 2020)", "key": {"[1]": {"species_on_record": "Homo sapiens", "test": "Selectivity ratio of IC50 for PTP1B (unknown origin) to IC50 for Protein phosphatase-lambda (unknown origin)"}, "[2]": {"species_on_record": "Homo sapiens", "test": "Selectivity ratio of IC50 for PTP1B (unknown origin) to IC50 for TCPTP (unknown origin)"}, "[3]": {"species_on_record": "Homo sapiens", "test": "Selectivity ratio of IC50 for PTP1B (unknown origin) to IC50 for PP1 (unknown origin)"}, "[4]": {"biological_target": "T1, Tyrosine-protein phosphatase non-receptor type 1 (Homo sapiens, UniProt P18031)", "T1 sequence (P18031 whole entry)": "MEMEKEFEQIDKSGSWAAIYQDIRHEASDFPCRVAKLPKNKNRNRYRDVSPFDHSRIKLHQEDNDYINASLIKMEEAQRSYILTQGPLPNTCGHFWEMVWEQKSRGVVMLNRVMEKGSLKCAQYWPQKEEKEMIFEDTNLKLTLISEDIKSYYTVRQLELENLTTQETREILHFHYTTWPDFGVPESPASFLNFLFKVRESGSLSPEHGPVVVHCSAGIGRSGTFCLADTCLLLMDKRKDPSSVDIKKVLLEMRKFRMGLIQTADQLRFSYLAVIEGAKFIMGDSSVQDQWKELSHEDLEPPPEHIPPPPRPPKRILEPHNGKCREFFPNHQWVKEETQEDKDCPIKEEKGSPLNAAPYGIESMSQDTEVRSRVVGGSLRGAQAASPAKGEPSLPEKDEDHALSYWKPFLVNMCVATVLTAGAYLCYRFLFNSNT", "test": "Inhibition of PTP1B (unknown origin) using flurogenic substrate by fluorescence plate reader assay"}, "[5]": {"species_on_record": "Homo sapiens", "test": "Selectivity ratio of IC50 for PTP1B (unknown origin) to IC50 for LAR (unknown origin)"}, "[6]": {"species_on_record": "Homo sapiens", "test": "Selectivity ratio of IC50 for PTP1B (unknown origin) to IC50 for YOP (unknown origin)"}, "[7]": {"biological_target": "Aldo-keto reductase family 1 member B1 (Rattus norvegicus, UniProt P07943)", "test": "Inhibition of ALR in Fischer-344 rat lens using D,L-glyceraldehyde as substrate in presence of NADPH measured after 3 mins by spectrophotometric assay", "type": "tissue-based"}, "[8]": {"biological_target": "T2, Aldo-keto reductase family 1 member B1 (Homo sapiens, UniProt P15121)", "test": "Inhibition of Aldose reductase in human muscle tissue using D,L-glyceraldehyde as substrate in presence of NADPH by spectrophotometric assay", "type": "tissue-based"}, "[9]": {"biological_target": "T1, Tyrosine-protein phosphatase non-receptor type 1", "test": "Inhibition of human PTP1B using pNPP as substrate incubated for 30 min"}, "[10]": {"species_on_record": "Homo sapiens", "test": "Selectivity ratio of Ki for PTP1B (unknown origin) to Ki for LAR (unknown origin)"}, "[11]": {"species_on_record": "Homo sapiens", "test": "Selectivity ratio of Ki for PTP1B (unknown origin) to Ki for PTPalpha (unknown origin)"}, "[12]": {"biological_target": "T1, Tyrosine-protein phosphatase non-receptor type 1", "test": "Inhibition of human recombinant PTP1B expressed in Escherichia coli using pNPP as substrate by microplate reader assay"}, "[13]": {"biological_target": "T1, Tyrosine-protein phosphatase non-receptor type 1", "test": "Inhibition of PTP1B (unknown origin) assessed as inhibition constant using pNPP as substrate"}, "[14]": {"biological_target": "T2, Aldo-keto reductase family 1 member B1", "test": "Inhibition of human Aldose reductase using glyceraldehyde as substrate preincubated for 5 mins in presence of NADPH followed by substrate addition and measured after 3 mins by UV-visible spectrophotometric assay"}, "[15]": {"biological_target": "T2, Aldo-keto reductase family 1 member B1", "test": "Inhibition of human ALR2 expressed in Escherichia coli BL21 (DE3) assessed as inhibition constant using D,L-glyceraldehyde as substrate in presence of NADPH by Michaelis-Menten analysis"}, "[16]": {"biological_target": "Aldo-keto reductase family 1 member B1 (Sus scrofa, UniProt P80276)", "test": "Inhibition of ALR2 in pig lens using D,L-glyceraldehyde as substrate preincubated for 4 mins in presence of NADPH followed by substrate addition and measured after 4 mins by spectrophotometric assay", "type": "tissue-based"}, "[17]": {"test": "Inhibition of ALR2 in Wistar rat lens using D,L-glyceraldehyde as substrate preincubated for 10 mins in presence of NADPH followed by substrate addition and measured after 5 mins by spectrophotometric assay", "type": "tissue-based"}, "[18]": {"biological_target": "Receptor-type tyrosine-protein phosphatase alpha (Homo sapiens, UniProt P18433)", "sequence (P18433 whole entry)": "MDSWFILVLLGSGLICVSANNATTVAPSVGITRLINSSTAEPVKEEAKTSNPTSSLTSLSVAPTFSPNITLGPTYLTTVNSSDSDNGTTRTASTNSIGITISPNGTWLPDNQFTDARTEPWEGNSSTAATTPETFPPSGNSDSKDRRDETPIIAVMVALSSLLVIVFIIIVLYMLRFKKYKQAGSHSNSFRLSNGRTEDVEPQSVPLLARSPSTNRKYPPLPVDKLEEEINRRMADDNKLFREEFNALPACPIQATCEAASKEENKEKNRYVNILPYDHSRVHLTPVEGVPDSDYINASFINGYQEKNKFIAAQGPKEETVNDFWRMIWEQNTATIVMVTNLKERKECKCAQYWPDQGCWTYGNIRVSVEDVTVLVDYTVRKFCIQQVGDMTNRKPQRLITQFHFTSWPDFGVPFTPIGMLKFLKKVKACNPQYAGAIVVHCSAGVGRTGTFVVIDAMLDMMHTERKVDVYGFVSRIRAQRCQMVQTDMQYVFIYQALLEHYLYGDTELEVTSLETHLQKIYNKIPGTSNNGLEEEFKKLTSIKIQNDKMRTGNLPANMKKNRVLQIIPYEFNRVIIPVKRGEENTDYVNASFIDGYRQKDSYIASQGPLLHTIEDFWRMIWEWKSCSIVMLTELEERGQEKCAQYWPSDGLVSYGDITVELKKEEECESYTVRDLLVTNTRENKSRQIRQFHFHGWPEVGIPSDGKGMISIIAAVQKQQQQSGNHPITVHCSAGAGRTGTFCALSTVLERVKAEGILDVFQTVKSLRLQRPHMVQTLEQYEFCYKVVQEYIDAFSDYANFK", "test": "Inhibition of PTPalpha (unknown origin)"}, "[19]": {"biological_target": "T3, Tyrosine-protein phosphatase non-receptor type 7 (Homo sapiens, UniProt P35236)", "T3 sequence (P35236 whole entry)": "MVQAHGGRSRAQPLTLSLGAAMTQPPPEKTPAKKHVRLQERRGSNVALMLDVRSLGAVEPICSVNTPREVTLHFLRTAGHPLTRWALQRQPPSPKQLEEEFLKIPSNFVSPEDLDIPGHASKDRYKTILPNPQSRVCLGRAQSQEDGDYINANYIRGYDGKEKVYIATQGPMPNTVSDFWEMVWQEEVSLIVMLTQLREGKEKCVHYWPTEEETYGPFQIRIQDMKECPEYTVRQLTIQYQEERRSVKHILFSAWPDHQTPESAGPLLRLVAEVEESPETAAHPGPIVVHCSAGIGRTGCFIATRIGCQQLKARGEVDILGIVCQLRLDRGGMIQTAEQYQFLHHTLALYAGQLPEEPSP", "test": "Inhibition of HEPTP (unknown origin)"}, "[20]": {"test_system": "Mus musculus", "test": "Anti-diabetic activity in ob/ob diabetic C57BL/6J mouse assessed as decrease in glucose level at 25 mg/kg,po dosed for 4 days", "type": "functional", "parameters": "scale not given: the % may be the effect or the level left", "conditions": "time 4 day"}, "[21]": {"test": "Inhibition of ALR2 in Wistar rat using D,L-glyceraldehyde as substrate preincubated for 10 mins in presence of NADPH followed by substrate addition and measured after 4 mins by spectrophotometric assay"}, "[22]": {"test": "Inhibition of ALR2 in rat lens using D,L-glyceraldehyde as substrate preincubated for 10 mins in presence of NADPH followed by substrate addition and measured after 20 mins by spectrophotometric assay", "type": "tissue-based"}, "[23]": {"biological_target": "T1, Tyrosine-protein phosphatase non-receptor type 1", "test": "Inhibition of human recombinant PTP1B (1 to 321 residues) expressed in Escherichia coli BL21 assessed as inhibition constant using pNPP as substrate"}}, "data": [{"compound": "COC(=O)C(O)c1ccc(NC(=O)CCCCn2cc(COc3ccc(-c4cc(C(=O)O)no4)cc3)nn2)cc1", "note": "(centres undefined)", "values": [{"measurement": "Ratio IC50", "setting": "[1]", "value": 10}, {"measurement": "Ratio IC50", "setting": "[2]", "value": 10}, {"measurement": "Ratio IC50", "setting": "[3]", "value": 10}, {"measurement": "IC50", "setting": "[4]", "value": 4700, "unit": "nM"}, {"measurement": "Ratio IC50", "setting": "[5]", "value": 10}, {"measurement": "Ratio IC50", "setting": "[6]", "value": 10}]}, {"compound": "O=C(O)Cn1cc(-c2nc3ccccc3s2)cc1C(=O)c1ccccc1", "values": [{"measurement": "IC50", "setting": "[7]", "value": 45, "unit": "nM"}]}, {"compound": "Cc1ccc(F)c(N(C)S(=O)(=O)C[N+](=O)[O-])c1", "values": [{"measurement": "IC50", "setting": "[8]", "value": 350, "unit": "nM"}]}, {"compound": "CCCCCCS(=O)(=O)NC(=O)c1ccc(CSCc2ccc(-c3ccccc3)cc2)cc1", "values": [{"measurement": "IC50", "setting": "[9]", "value": 280, "unit": "nM"}]}, {"compound": "O=C(O)COc1ccc(-c2cc(NC(=O)C(=O)O)c(C(=O)O)s2)cc1", "values": [{"measurement": "Ratio Ki", "setting": "[10]", "value": 20}, {"measurement": "Ratio Ki", "setting": "[11]", "value": 20}]}, {"compound": "CC(=C\\c1csc([C@@H](Cc2ccc(OCc3ccccc3)cc2)NC(=O)CC2CCCCC2)n1)/C=C(\\C)C(=O)O", "values": [{"measurement": "IC50", "setting": "[12]", "value": 2480, "unit": "nM"}]}, {"compound": "CCCCCNC(=O)[C@H](Cc1ccc(OC(C(=O)O)C(=O)O)cc1)NC(=O)[C@H](Cc1ccccc1)NC(=O)CCC(=O)O", "values": [{"measurement": "Ki", "setting": "[13]", "value": 1200, "unit": "nM"}]}, {"compound": "Nc1ccc(CNC(=O)c2ccc(Cl)cc2OCC(=O)O)c(F)c1", "values": [{"measurement": "IC50", "setting": "[14]", "value": 1300, "unit": "nM"}]}, {"compound": "N#Cc1ccc(CNC(=O)c2ccc(Cl)cc2OCC(=O)O)cc1[N+](=O)[O-]", "values": [{"measurement": "Ki", "setting": "[15]", "value": 107, "unit": "nM"}]}, {"compound": "O=C(O)CCCCCN1N=C2c3ccsc3CCC2CC1=O", "note": "(centres undefined)", "values": [{"measurement": "IC50", "setting": "[16]", "value": 7600, "unit": "nM"}]}, {"compound": "O=C(O)CC1=CN(/C=C/c2ccc(O)cc2)S(=O)(=O)c2ccccc21", "values": [{"measurement": "IC50", "setting": "[17]", "value": 94, "unit": "nM"}]}, {"compound": "O=C(O)CC1=CN(/C=C/c2ccc(O)c(O)c2)S(=O)(=O)c2ccccc21", "values": [{"measurement": "IC50", "setting": "[17]", "value": 126, "unit": "nM"}]}, {"compound": "O=C(O)[C@H](Cc1ccccc1)Oc1ccc(-c2ccc(-c3c(Cc4ccccc4)oc4ccccc34)cc2)cc1", "values": [{"measurement": "IC50", "setting": "[18]", "value": 33700, "unit": "nM"}, {"measurement": "IC50", "setting": "[19]", "value": 7100, "unit": "nM"}, {"measurement": "Activity", "setting": "[20]", "value": 27, "unit": "%"}]}, {"compound": "O=C(O)Cn1c(=O)c(Cc2ccc(Br)cc2F)nc2ccc(F)cc21", "values": [{"measurement": "IC50", "setting": "[21]", "value": 6.44, "unit": "nM"}]}, {"compound": "Cc1ccc(C(=O)/C(=C/c2ccc(O)c(O)c2)C(=O)O)cc1", "values": [{"measurement": "IC50", "setting": "[22]", "value": 490, "unit": "nM"}]}, {"compound": "CCCCCNC(=O)[C@H](Cc1ccc(OCC(=O)O)c(C(=O)O)c1)NC(=O)[C@H](Cc1ccccc1)NC(=O)CCC(=O)O", "values": [{"measurement": "Ki", "setting": "[23]", "value": 250, "unit": "nM"}]}]}
